From patent US8598207B2, “Compositions containing opioid antagonists” (Adolor Corporation, priority 2004, dated 2013)
Like-named read-outs stand apart in the source and are kept apart here.

How the values were obtained:
[1] = Blood:plasma distribution ratio; type: in vitro ADME; settings: blood and plasma
Solubility in water = type: physicochemical

Row | Compound | blood plasma ratio [1] | Solubility in water (Solubility in water; dihydrate) | Solubility in water (Solubility in water; listed as compound of formula (II), dihydrate) | Solubility in water (Solubility in water)
1 | C[C@H]1CN(C[C@H](Cc2ccccc2)C(=O)NCC(=O)O)CC[C@@]1(C)c1cccc(O)c1 [Alvimopan, [[2(S)-[[4(R)-(3-hydroxyphenyl)-3(R),4-dimethyl-1-piperidinyl]methyl]-1-oxo-3-phenylpropyl]amino]acetic acid dihydrate] | 0.68 | extremely low solubility in water | low solubility in water except at low or high pH conditions | 
2 | C[C@H]1CN(C[C@H](Cc2ccccc2)C(=O)O)CC[C@@]1(C)c1cccc(O)c1.O [active metabolite, (αS,3R,4R)-4-(3-hydroxyphenyl)-3,4-dimethyl-α-(phenylmethyl)-1-piperidinepropanoic acid monohydrate] |  |  |  | extremely low solubility in water
